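96-well plates; 48 h exposure; 5 concentrations. Endpoints by linear interpolation between flanking doses. Not reached: highest tested concentration assigned. TGI is the concentration that stops growth completely.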
Tests used:
Experiment in all cases: NCI tumour cell line growth inhibition, 48 h
A549 NSCLC = system: A549 NSCLC
ACHN renal = system: ACHN renal
BT-549 breast = system: BT-549 breast
CAKI-1 renal = system: CAKI-1 renal
CCRF-CEM leukemia = system: CCRF-CEM leukemia
COLO 205 colon = system: COLO 205 colon
DU-145 prostate = system: DU-145 prostate
EKVX NSCLC = system: EKVX NSCLC
HCC-2998 colon = system: HCC-2998 colon
HCT-116 colon = system: HCT-116 colon
HL-60(TB) leukemia = system: HL-60(TB) leukemia
HOP-62 NSCLC = system: HOP-62 NSCLC
HOP-92 NSCLC = system: HOP-92 NSCLC
HS 578T breast = system: HS 578T breast
HT29 colon = system: HT29 colon
IGROV1 ovarian = system: IGROV1 ovarian
K-562 leukemia = system: K-562 leukemia
KM12 colon = system: KM12 colon
LOX IMVI melanoma = system: LOX IMVI melanoma
M14 melanoma = system: M14 melanoma
MCF7 breast = system: MCF7 breast
MDA-MB-231 breast = system: MDA-MB-231 breast
MDA-MB-435 = system: MDA-MB-435
MDA-N = system: MDA-N
MOLT-4 leukemia = system: MOLT-4 leukemia
NCI-H226 lung = system: NCI-H226 lung
NCI-H23 lung = system: NCI-H23 lung
NCI-H460 lung = system: NCI-H460 lung
NCI/ADR-RES ovarian = system: NCI/ADR-RES ovarian
OVCAR-3 ovarian = system: OVCAR-3 ovarian
OVCAR-4 ovarian = system: OVCAR-4 ovarian
OVCAR-5 ovarian = system: OVCAR-5 ovarian
OVCAR-8 ovarian = system: OVCAR-8 ovarian
PC-3 prostate = system: PC-3 prostate
RPMI-8226 leukemia = system: RPMI-8226 leukemia
RXF 393 renal = system: RXF 393 renal
SF-268 CNS = system: SF-268 CNS
SF-295 CNS = system: SF-295 CNS
SF-539 CNS = system: SF-539 CNS
SK-MEL-2 melanoma = system: SK-MEL-2 melanoma
SK-MEL-28 melanoma = system: SK-MEL-28 melanoma
SK-MEL-5 melanoma = system: SK-MEL-5 melanoma
SK-OV-3 ovarian = system: SK-OV-3 ovarian
SN12C renal = system: SN12C renal
SNB-19 CNS = system: SNB-19 CNS
SNB-75 CNS = system: SNB-75 CNS
SR leukemia = system: SR leukemia
SW-620 colon = system: SW-620 colon
T-47D breast = system: T-47D breast
TK-10 renal = system: TK-10 renal
U251 CNS = system: U251 CNS
UACC-257 melanoma = system: UACC-257 melanoma
UACC-62 melanoma = system: UACC-62 melanoma
UO-31 renal = system: UO-31 renal
786-0 renal = system: 786-0 renal
A498 renal = system: A498 renal
HCT-15 colon = system: HCT-15 colon
NCI-H522 lung = system: NCI-H522 lung

COc1cc(CCCl)c(CC2=NCCc3cc(OC)c(OC)cc32)cc1OC
TGI (A549 NSCLC): > 100 µM
TGI (ACHN renal): > 100 µM
TGI (BT-549 breast): > 100 µM
TGI (CAKI-1 renal): > 100 µM
TGI (CCRF-CEM leukemia): > 100 µM
TGI (COLO 205 colon): > 100 µM
TGI (DU-145 prostate): > 100 µM
TGI (EKVX NSCLC): > 100 µM
TGI (HCC-2998 colon): > 100 µM
TGI (HCT-116 colon): > 100 µM
TGI (HL-60(TB) leukemia): > 100 µM
TGI (HOP-62 NSCLC): > 100 µM
TGI (HOP-92 NSCLC): > 100 µM
TGI (HS 578T breast): 80.7 µM
TGI (HT29 colon): > 100 µM
TGI (IGROV1 ovarian): > 100 µM
TGI (K-562 leukemia): > 100 µM
TGI (KM12 colon): > 100 µM
TGI (LOX IMVI melanoma): > 100 µM
TGI (M14 melanoma): > 100 µM
TGI (MCF7 breast): > 100 µM
TGI (MDA-MB-231 breast): > 100 µM
TGI (MDA-MB-435): > 100 µM
TGI (MDA-N): > 100 µM
TGI (MOLT-4 leukemia): > 100 µM
TGI (NCI-H226 lung): > 100 µM
TGI (NCI-H23 lung): > 100 µM
TGI (NCI-H460 lung): > 100 µM
TGI (NCI/ADR-RES ovarian): > 100 µM
TGI (OVCAR-3 ovarian): > 100 µM
TGI (OVCAR-4 ovarian): > 100 µM
TGI (OVCAR-5 ovarian): > 100 µM
TGI (OVCAR-8 ovarian): > 100 µM
TGI (PC-3 prostate): > 100 µM
TGI (RPMI-8226 leukemia): > 100 µM
TGI (RXF 393 renal): > 100 µM
TGI (SF-268 CNS): > 100 µM
TGI (SF-295 CNS): > 100 µM
TGI (SF-539 CNS): 57.7 µM
TGI (SK-MEL-2 melanoma): > 100 µM
TGI (SK-MEL-28 melanoma): > 100 µM
TGI (SK-MEL-5 melanoma): > 100 µM
TGI (SK-OV-3 ovarian): > 100 µM
TGI (SN12C renal): > 100 µM
TGI (SNB-19 CNS): > 100 µM
TGI (SNB-75 CNS): > 100 µM
TGI (SR leukemia): > 100 µM
TGI (SW-620 colon): > 100 µM
TGI (T-47D breast): > 100 µM
TGI (TK-10 renal): > 100 µM
TGI (U251 CNS): > 100 µM
TGI (UACC-257 melanoma): > 100 µM
TGI (UACC-62 melanoma): > 100 µM
TGI (UO-31 renal): > 100 µM

C=C1C/C(=C/C)C(=O)O[C@@H]2CCN3CC=C(COC(=O)[C@]1(C)O)[C@H]23
TGI (786-0 renal): > 100 µM
TGI (A498 renal): > 100 µM
TGI (A549 NSCLC): > 100 µM
TGI (ACHN renal): > 100 µM
TGI (BT-549 breast): > 100 µM
TGI (CAKI-1 renal): > 100 µM
TGI (CCRF-CEM leukemia): > 100 µM
TGI (COLO 205 colon): > 100 µM
TGI (DU-145 prostate): > 100 µM
TGI (EKVX NSCLC): > 100 µM
TGI (HCC-2998 colon): > 100 µM
TGI (HCT-116 colon): > 100 µM
TGI (HCT-15 colon): > 100 µM
TGI (HL-60(TB) leukemia): > 100 µM
TGI (HOP-62 NSCLC): > 100 µM
TGI (HOP-92 NSCLC): > 100 µM
TGI (HS 578T breast): > 100 µM
TGI (HT29 colon): > 100 µM
TGI (IGROV1 ovarian): > 100 µM
TGI (K-562 leukemia): > 100 µM
TGI (KM12 colon): > 100 µM
TGI (LOX IMVI melanoma): > 100 µM
TGI (M14 melanoma): > 100 µM
TGI (MCF7 breast): > 100 µM
TGI (MDA-MB-231 breast): > 100 µM
TGI (MDA-MB-435): > 100 µM
TGI (MDA-N): > 100 µM
TGI (NCI-H226 lung): > 100 µM
TGI (NCI-H23 lung): > 100 µM
TGI (NCI-H460 lung): > 100 µM
TGI (NCI-H522 lung): > 100 µM
TGI (NCI/ADR-RES ovarian): > 100 µM
TGI (OVCAR-3 ovarian): > 100 µM
TGI (OVCAR-4 ovarian): > 100 µM
TGI (OVCAR-5 ovarian): > 100 µM
TGI (OVCAR-8 ovarian): > 100 µM
TGI (PC-3 prostate): > 100 µM
TGI (RPMI-8226 leukemia): > 100 µM
TGI (SF-268 CNS): > 100 µM
TGI (SF-295 CNS): > 100 µM
TGI (SF-539 CNS): > 100 µM
TGI (SK-MEL-2 melanoma): > 100 µM
TGI (SK-MEL-28 melanoma): > 100 µM
TGI (SK-MEL-5 melanoma): > 100 µM
TGI (SK-OV-3 ovarian): > 100 µM
TGI (SNB-19 CNS): > 100 µM
TGI (SNB-75 CNS): > 100 µM
TGI (SR leukemia): > 100 µM
TGI (SW-620 colon): > 100 µM
TGI (T-47D breast): > 100 µM
TGI (TK-10 renal): > 100 µM
TGI (U251 CNS): > 100 µM
TGI (UACC-257 melanoma): > 100 µM
TGI (UACC-62 melanoma): > 100 µM
TGI (UO-31 renal): > 100 µM

Cn1c(=O)c2c(ncn2Cc2ccc(O)c([N+](=O)[O-])c2)n(C)c1=O
TGI (786-0 renal): > 100 µM
TGI (A498 renal): > 100 µM
TGI (A549 NSCLC): > 100 µM
TGI (ACHN renal): > 100 µM
TGI (BT-549 breast): > 100 µM
TGI (CAKI-1 renal): > 100 µM
TGI (CCRF-CEM leukemia): > 100 µM
TGI (COLO 205 colon): > 100 µM
TGI (DU-145 prostate): > 100 µM
TGI (EKVX NSCLC): > 100 µM
TGI (HCT-116 colon): > 100 µM
TGI (HCT-15 colon): > 100 µM
TGI (HL-60(TB) leukemia): > 100 µM
TGI (HOP-62 NSCLC): > 100 µM
TGI (HS 578T breast): > 100 µM
TGI (HT29 colon): > 100 µM
TGI (IGROV1 ovarian): > 100 µM
TGI (K-562 leukemia): > 100 µM
TGI (KM12 colon): > 100 µM
TGI (LOX IMVI melanoma): > 100 µM
TGI (M14 melanoma): > 100 µM
TGI (MCF7 breast): > 100 µM
TGI (MDA-MB-231 breast): > 100 µM
TGI (MDA-MB-435): > 100 µM
TGI (MDA-N): > 100 µM
TGI (MOLT-4 leukemia): > 100 µM
TGI (NCI-H226 lung): > 100 µM
TGI (NCI-H23 lung): > 100 µM
TGI (NCI-H460 lung): > 100 µM
TGI (NCI-H522 lung): > 100 µM
TGI (NCI/ADR-RES ovarian): > 100 µM
TGI (OVCAR-3 ovarian): > 100 µM
TGI (OVCAR-4 ovarian): > 100 µM
TGI (OVCAR-5 ovarian): > 100 µM
TGI (OVCAR-8 ovarian): > 100 µM
TGI (PC-3 prostate): > 100 µM
TGI (RPMI-8226 leukemia): > 100 µM
TGI (SF-268 CNS): > 100 µM
TGI (SF-295 CNS): > 100 µM
TGI (SF-539 CNS): > 100 µM
TGI (SK-MEL-2 melanoma): > 100 µM
TGI (SK-MEL-28 melanoma): > 100 µM
TGI (SK-MEL-5 melanoma): > 100 µM
TGI (SK-OV-3 ovarian): > 100 µM
TGI (SN12C renal): > 100 µM
TGI (SNB-19 CNS): > 100 µM
TGI (SNB-75 CNS): > 100 µM
TGI (SR leukemia): > 100 µM
TGI (SW-620 colon): > 100 µM
TGI (T-47D breast): > 100 µM
TGI (TK-10 renal): > 100 µM
TGI (U251 CNS): > 100 µM
TGI (UACC-257 melanoma): > 100 µM
TGI (UACC-62 melanoma): > 100 µM
TGI (UO-31 renal): > 100 µM

From PubChem BioAssay (NCI)
